This is an account of results in patent publication US5506256A, “Proline derivatives possessing prolyl endopeptidase-inhibitory activity” (Yoshitomi Pharmaceutical Industries, Ltd., priority 1990, dated 1996).

One assay has as its target T1, chymotrypsin (Bos taurus, UniProt P00766).
T1 construct: purchased Sigma; host or cells: bovine pancreas
Description: Determination of chymotrypsin-inhibitory activity. Conditions: read-out: inhibition rate, chymotrypsin. The assay is classed as biochemical, bovine. Put shortly:
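Bovine pancreatic chymotrypsin (0.2 μM enzyme solution) assayed in 50 mM Tris-HCl, pH 8.0, with the fluorogenic substrate Suc-Leu-Leu-Val-Tyr-MCA. Fluorescence was read with and without inhibitor, and percent inhibition was calculated from the fluorescence values.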

In the next assay the target is T2, trypsin (Bos taurus, UniProt P00760).
T2 construct: purchased Sigma; host or cells: bovine pancreas
T2 sequence (P00760 24-246): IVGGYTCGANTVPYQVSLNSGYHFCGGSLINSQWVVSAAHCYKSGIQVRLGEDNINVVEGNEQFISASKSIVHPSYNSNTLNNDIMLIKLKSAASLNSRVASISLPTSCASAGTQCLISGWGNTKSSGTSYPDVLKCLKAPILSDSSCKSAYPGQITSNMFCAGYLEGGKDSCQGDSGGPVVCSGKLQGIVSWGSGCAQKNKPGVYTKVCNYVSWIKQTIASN
Briefly: Determination of trypsin-inhibitory activity. It is filed as biochemical, bovine. Conditions: read-out: inhibition rate, trypsin. Put shortly:
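Bovine pancreatic trypsin and compound in 50 mM Tris-HCl pH 8.0 with Pro-Phe-Arg-MCA substrate, 1 h at 30 °C, stopped on ice. Fluorescence at ex 370/em 440 nm. Inhibition rate from compound, no-enzyme and no-compound wells.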

The target in another assay is T3, prolyl endopeptidase (Rattus norvegicus, UniProt O70196).
T3 construct: prolyl endopeptidase extracted from rat brain; from tissue; host or cells: rat brain
T3 sequence (O70196 whole entry): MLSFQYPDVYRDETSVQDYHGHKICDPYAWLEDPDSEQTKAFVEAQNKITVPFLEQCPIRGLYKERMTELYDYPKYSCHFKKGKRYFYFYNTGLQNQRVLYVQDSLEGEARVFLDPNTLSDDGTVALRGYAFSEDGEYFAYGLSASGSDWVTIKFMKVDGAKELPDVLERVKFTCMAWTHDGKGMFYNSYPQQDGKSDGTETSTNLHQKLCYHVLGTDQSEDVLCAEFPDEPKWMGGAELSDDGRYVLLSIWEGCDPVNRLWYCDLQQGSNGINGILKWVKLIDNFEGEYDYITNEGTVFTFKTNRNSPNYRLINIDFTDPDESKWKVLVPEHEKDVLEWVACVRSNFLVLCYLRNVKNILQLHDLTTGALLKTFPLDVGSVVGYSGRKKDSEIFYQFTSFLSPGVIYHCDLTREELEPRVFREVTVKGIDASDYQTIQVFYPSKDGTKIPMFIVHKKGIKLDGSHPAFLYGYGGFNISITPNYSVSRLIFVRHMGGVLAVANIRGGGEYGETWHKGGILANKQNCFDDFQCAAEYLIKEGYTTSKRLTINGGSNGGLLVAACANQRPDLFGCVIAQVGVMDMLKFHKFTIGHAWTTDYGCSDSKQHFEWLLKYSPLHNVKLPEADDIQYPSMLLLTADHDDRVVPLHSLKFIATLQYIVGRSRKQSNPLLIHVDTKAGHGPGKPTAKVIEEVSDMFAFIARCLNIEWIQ
Description: Prolyl endopeptidase-inhibitory activity. It is filed as biochemical. As to conditions: for inhibition at 0.1 µM / inhibition at 1 µM: read-out: inhibition rate, prolyl endopeptidase; for IC50: prolyl endopeptidase extracted from rat brain, pH 7.0, 30° C., read-out: IC50. Put shortly:
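Rat brain prolyl endopeptidase was preincubated with compound for 30 min at 30 °C in 0.1 M potassium sodium phosphate, pH 7.0. Substrate Suc-Gly-Pro-MCA was then added from a 0.2 mM stock and the reaction run 1 h at 30 °C. After ice stop, fluorescence was read (ex 370/em 440 nm), and IC50 was estimated graphically from % inhibition.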

Another assay concerns the target T4, elastase (Sus scrofa, UniProt P00772).
T4 construct: purchased Sigma; host or cells: swine pancreas
Briefly: Determination of elastase-inhibitory activity. The assay is classed as biochemical, swine. Conditions: read-out: inhibition rate, elastase. In short, it runs like this: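 Porcine pancreatic elastase (0.2 μM solution) with 200 μM succinyl-Ala-Pro-Ala-4-methylcoumarinamide substrate solution in 1 mM Tris-HCl pH 8.5. Fluorescence measured and inhibition rate calculated by formula.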

A further assay concerns the target T5, cathepsin B (Bos taurus, UniProt P07688).
T5 construct: purchased Sigma; host or cells: bovine spleen
Briefly: Determination of cathepsin B-inhibitory activity. It is filed as biochemical, bovine. Conditions: read-out: inhibition rate, cathepsin B. In short, it runs like this:
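Bovine spleen cathepsin B (0.02 μM solution) was assayed in 100 mM sodium phosphate, pH 6.0, with 1.33 mM EDTA. The substrate was Z-Phe-Arg-4-methylcoumarinamide (200 μM solution). Percent inhibition was calculated from fluorescence readings.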

In another assay the test system is leucine aminopeptidase. Description: Determination of leucine aminopeptidase-inhibitory activity. It is filed as biochemical, swine. The arrangement: unit not given here. In short, it runs like this: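 Swine kidney leucine aminopeptidase ([…] enzyme solution) was measured in 50 mM Tris-HCl pH 8.0 with 7-leucyl-4-methyl-coumarinamide (200 μM substrate solution). Inhibition rate was calculated from fluorescence readings.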

Each structure is given as a SMILES string.

T4 sequence (P00772 27-266): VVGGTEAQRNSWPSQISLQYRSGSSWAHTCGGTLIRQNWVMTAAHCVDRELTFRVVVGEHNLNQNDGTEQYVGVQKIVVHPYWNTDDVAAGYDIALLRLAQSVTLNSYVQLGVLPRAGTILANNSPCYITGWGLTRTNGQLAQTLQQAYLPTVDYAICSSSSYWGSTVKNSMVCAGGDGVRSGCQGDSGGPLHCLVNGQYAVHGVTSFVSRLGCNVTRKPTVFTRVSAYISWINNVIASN

For the compound `O=C(COc1ccccc1)[C@@H]1CCCN1C(=O)[C@@H]1CCCN1C(=O)NCc1ccc(Cl)cc1` [Compound 30, (2S)-1-[N-(4-Chlorobenzylaminocarbonyl)-L-prolyl]-2-(phenoxyacetyl)pyrrolidine], the inhibition at 0.1 µM on chymotrypsin was 0%; at trypsin it was 0%; at prolyl endopeptidase, 99%; at elastase it was 0%; on cathepsin B it was 0%. The IC50 on prolyl endopeptidase came out at 0.6 nM. The “inhibition rate, leucine aminopeptidase” value in the assay with leucine aminopeptidase (0.1 μM) is 0.

`CCCCCCCC(=O)N1CCC[C@H]1C(=O)N1CCC[C@H]1C(=O)COc1ccccc1` [Compound 31, (2S)-1-(N-Octanoyl-L-prolyl)-2-(phenoxyacetyl)pyrrolidine]: the inhibition at 0.1 µM at chymotrypsin came to 0%; at trypsin, 0%; at prolyl endopeptidase it was 97%; at elastase, 0%; at cathepsin B, 0%. In addition, on prolyl endopeptidase, the IC50 was 4.5 nM. In addition, the “inhibition rate, leucine aminopeptidase” value with leucine aminopeptidase (0.1 μM) turned out to be 0.

For `O=C(COCc1ccccc1)[C@@H]1CCCN1C(=O)[C@@H]1CCCN1C(=O)NCc1ccccc1` [Compound 32], the inhibition at 0.1 µM on chymotrypsin turned out to be 0%; on trypsin, 0%; at prolyl endopeptidase, 96%; at elastase, 0%; at cathepsin B, 0%. Further, the IC50 at prolyl endopeptidase is 1 nM. For the same compound, in the assay on leucine aminopeptidase (0.1 μM), the “inhibition rate, leucine aminopeptidase” value was found to be 0.

`O=C(COc1ccccc1)[C@@H]1CCCN1C(=O)[C@@H]1CCCN1C(=O)COc1ccccc1` [Compound 46, (2S)-2-(Phenoxyacetyl)-1-[N-(phenoxyacetyl)-L-prolyl]pyrrolidine]: the inhibition at 1 µM at chymotrypsin stood at 0%; at trypsin it was 0%; at prolyl endopeptidase, 93%; on elastase, 0%; at cathepsin B, 0%. For the same compound, the half-maximal inhibitory concentration (IC50) at prolyl endopeptidase came out at 60 nM. Further, the “inhibition rate, leucine aminopeptidase” value with leucine aminopeptidase (1 μM) is reported as 0.

With `COc1ccc(OCC(=O)[C@@H]2CCCN2C(=O)[C@@H]2CCCN2C(=O)COc2ccccc2)cc1` [Compound 47, (2S)-2-(4-Methoxyphenoxyacetyl)-1-[N-(phenoxyacetyl)-L-prolyl]pyrrolidine], the inhibition at 1 µM was 0% on chymotrypsin; 0% at trypsin; 98% at prolyl endopeptidase; 0% on elastase; 0% on cathepsin B. At prolyl endopeptidase, the IC50 was found to be 50 nM. Besides, the “inhibition rate, leucine aminopeptidase” value with leucine aminopeptidase (1 μM) is 0.

Consider `COc1ccc(OCC(=O)[C@@H]2CCCN2C(=O)[C@@H]2CCCN2C(=O)CNc2ccccc2)cc1` [Compound 48, (2S)-2-(4-Methoxyphenoxyacetyl)-1-[N-(N-phenylglycyl)-L-prolyl]pyrrolidine], for which the inhibition at 1 µM on chymotrypsin came to 0%; on trypsin, 0%; at prolyl endopeptidase, 90%; on elastase it was 0%; at cathepsin B it was 0%. For the same compound, the IC50 at prolyl endopeptidase worked out at 60 nM. Further, the “inhibition rate, leucine aminopeptidase” value in the assay with leucine aminopeptidase (1 μM) was determined as 0.

Turning to `COc1ccc(OCC(=O)[C@@H]2CCCN2C(=O)[C@@H]2CCCN2C(=O)CSc2ccccc2)cc1` [Compound 49, (25)-2-(4-Methoxyphenoxyacetyl)-1-{N-[(phenylthio)acetyl]-L-prolyl}pyrrolidine], the inhibition at 1 µM worked out at 0% on chymotrypsin; 0% on trypsin; 98% at prolyl endopeptidase; 0% on elastase; 0% at cathepsin B. In addition, the IC50 on prolyl endopeptidase came to 20 nM. The “inhibition rate, leucine aminopeptidase” value with leucine aminopeptidase (1 μM) came to 0.

On to `COc1ccc(OCC(=O)[C@@H]2CCCN2C(=O)[C@@H]2CCCN2C(=O)OCC23CC4CC(CC(C4)C2)C3)cc1` [Compound 50, (2S)-1-{N-[(1-Adamantyl)methoxycarbonyl]-L-prolyl}-2-(4-methoxyphenoxyacetyl)pyrrolidine], for which the inhibition at 1 µM on chymotrypsin is 0%; on trypsin it was 0%; at prolyl endopeptidase, 97%; at elastase, 0%; at cathepsin B, 0%. For the same compound, on prolyl endopeptidase, the 50% inhibitory concentration (IC50) worked out at 500 nM. The “inhibition rate, leucine aminopeptidase” value in the assay on leucine aminopeptidase (1 μM) came out at 0.

With `O=C(COc1ccccc1)[C@@H]1CCCN1C(=O)[C@@H]1CSCN1C(=O)NCc1ccccc1` [Compound 51, (2S)-1-[N-(Benzylaminocarbonyl)-L-thioprolyl]-2-(phenoxyacetyl)pyrrolidine], the inhibition at 1 µM at chymotrypsin came out at 0%; on trypsin, 0%; at prolyl endopeptidase it was 98%; at elastase it was 0%; at cathepsin B, 0%. Also, on prolyl endopeptidase, the half-maximal inhibitory concentration (IC50) is 15 nM. Further, the “inhibition rate, leucine aminopeptidase” value in the assay with leucine aminopeptidase (1 μM) is on record as 0.

Turning to `CCOC(=O)CN(Cc1ccccc1)C(=O)N1CCC[C@H]1C(=O)N1CCC[C@H]1C(=O)COc1ccccc1` [Compound 52, (2S)-1-{N-[N-Benzyl-N-(ethoxycarbonylmethyl)aminocarbonyl]-L-prolyl}-2-(phenoxyacetyl)pyrrolidine], the inhibition at 0.1 µM on chymotrypsin is 0%; at trypsin, 0%; on prolyl endopeptidase it was 97%; on elastase, 0%; on cathepsin B, 0%. Besides, the IC50 on prolyl endopeptidase stood at 2 nM. In the assay with leucine aminopeptidase (0.1 μM), the “inhibition rate, leucine aminopeptidase” value was 0.

With `CCOC(=O)[C@@H](NC(=O)N1CCC[C@H]1C(=O)N1CCC[C@H]1C(=O)COc1ccccc1)c1ccccc1` [Compound 53, (2S)-1-[N-[[(S)-α-(Ethoxycarbonyl)benzylamino]carbonyl]-L-prolyl]-2-(phenoxyacetyl)pyrrolidine], the inhibition at 1 µM was determined as 0% at chymotrypsin; 0% on trypsin; 96% at prolyl endopeptidase; 0% at elastase; 0% at cathepsin B. For the same compound, the IC50 at prolyl endopeptidase was found to be 30 nM. Also, the “inhibition rate, leucine aminopeptidase” value with leucine aminopeptidase (1 μM) is 0.

On to `O=C(COc1ccccn1)[C@@H]1CCCN1C(=O)[C@@H]1CCCN1C(=O)NCc1ccccc1` [Compound 54, (2S)-1-[N-(Benzylaminocarbonyl)-L-prolyl]-2-[(2-pyridyloxy)acetyl]pyrrolidine], for which the inhibition at 1 µM at chymotrypsin worked out at 0%; at trypsin, 0%; on prolyl endopeptidase, 85%; on elastase, 0%; on cathepsin B, 0%. For the same compound, the 50% inhibitory concentration (IC50) at prolyl endopeptidase turned out to be 200 nM. Also, the “inhibition rate, leucine aminopeptidase” value in the assay with leucine aminopeptidase (1 μM) was 0.
